Results reported in patent publication US6171829A, “Physiologically active substance PF1191 and process for producing the same” (Meiji Seika Kaisha, Ltd., priority 1997, dated 2001).
Entries after “also recorded” stand apart in the source; their conditions may differ.

Experiments:
[1] = test system: primarily cultured chick telencephalon nerve cells; conditions: Neuroscience Letters, vol. 139, 205-208 (1992); result in words; cited from earlier work
[2] = test system: primarily cultured nerve cells of chick telencephalon; experiment: Inhibitory activity to kainic acid toxicity, primarily cultured nerve cells of chick telencephalon; assay type: cell-based
Protocol: (§1) The inhibitory activities to kainic acid toxicity of the substance PF1191 on primarily cultured nerve cells of chick telencephalon and rat hippocampus were examined. The test with the use of the primarily cultured nerve cells of chick telencephalon was carried out in accordance with the method reported in Neuroscience Letters, vol. 139, 205-208 […], while the test with the use of the primarily cultured nerve cells of rat hippocampus was carried out in accordance with the method reported in Brain Research, 126(1977) 397-425.
(§2) The molar concentration at which the cytotoxicity caused by the addition of 500 μM of kainic acid to the cultured cells was inhibited at a ratio of 50% was expressed in EC50 (effective concentration-fifty) in Table 1 below.

[3] = test system: primarily cultured nerve cells of rat hippocampus; experiment: Inhibitory activity to kainic acid toxicity, primarily cultured nerve cells of rat hippocampus; assay type: cell-based
Protocol: as §1, §2

Q: Which “inhibition of kainic acid toxicity by non-NMDA receptor antagonists” value (from here on “inhibition … by non-NMDA receptor antagonists”) [1] does the source give for `N#Cc1cc2[nH]c(=O)c(=O)[nH]c2cc1[N+](=O)[O-]` [CNQX, 6-cyano-7-nitroquinoxaline-2,3-dione] here?
A: inhibited

Q: With `O=c1[nH]c2cc([N+](=O)[O-])c([N+](=O)[O-])cc2[nH]c1=O` [DNQX, 6,7-dinitroquinoxaline-2,3-dione] as the compound, how does the “inhibition … by non-NMDA receptor antagonists” value [1] read?
A: inhibited

Q: For `NS(=O)(=O)c1cccc2c1c([N+](=O)[O-])cc1[nH]c(=O)c(=O)[nH]c12` [NBQX, 6-nitro-7-sulfamoylbenzo[f]quinoxaline-2,3-dione], which “inhibition … by non-NMDA receptor antagonists” value [1] is on record?
A: inhibited

Q: Which EC50 ([2]; Gallus gallus, chick telencephalon nerve cells + kainic acid (500 μM), read-out: 50% Effective conc. (EC50), inhibitory activity to kainic acid toxicity) does the source give for `NC(C(=O)O)C(O)C1(C(=O)O)CCC(CC(NC(=O)c2cc(Cl)c(O)c(Cl)c2)C(=O)O)N1` (centres unmarked) [Substance PF1191] here?
A: 1500 nM

Q: What about the “inhibitory activity to kainic acid toxicity in comparison with DNQX” value ([2]; chick telencephalon nerve cells, kainic acid 500 μM, result in words) of the same compound?
A: stronger inhibitory activity to kainic acid toxicity than that of DNQX; also recorded: stronger inhibitory activity to kainic acid toxicity in comparison with the known substance DNQX

Q: What about the EC50 ([3]; rat hippocampus nerve cells + kainic acid (500 μM), read-out: 50% Effective conc. (EC50), inhibitory activity to kainic acid toxicity) of the same compound?
A: 450 nM

Q: What about the “inhibitory activity to kainic acid toxicity in comparison with DNQX” value ([3]; rat hippocampus nerve cells, kainic acid 500 μM, result in words) of the same compound?
A: stronger inhibitory activity to kainic acid toxicity in comparison with the known substance DNQX

Q: For `C=C(C)[C@H]1CN[C@H](C(=O)O)[C@H]1CC(=O)O` [kainic acid], which “toxicity to primarily cultured chick telencephalon nerve cells” value [1] is on record?
A: toxic
